Source: the supplement of paper PMC10307832

Legend:
Test in all cases: relative viability (nuclei count vs DMSO), 5 days (fraction); higher = more cells survive
NCI-H838 = test system: NCI-H838
Procedure, shortened: (§1)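 Lung cancer cell lines were seeded in 1536-well plates and dosed by pin tool the next day, with either a single drug or a fixed anchor-drug dose combined with five library-drug doses (not always all listed) spaced in √10 steps. Five days later, one step fixed the cells and stained their nuclei (final 0.05% Triton X-100, 1% formaldehyde, 1 ug/ml Hoechst), and nuclei were counted on 4× images. Relative viability is the nuclei count in treated wells divided by the count in vehicle wells, and each value is the median of duplicate plates.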

COR-L23 = test system: COR-L23
Procedure, shortened: as §1

HCC-366 = test system: HCC-366
Procedure, shortened: as §1

HCC-15 = test system: HCC-15
Procedure, shortened: as §1

NCI-H1993 = test system: NCI-H1993
Procedure, shortened: as §1

NCI-H2405 = test system: NCI-H2405
Procedure, shortened: as §1

HCC-78 = test system: HCC-78
Procedure, shortened: as §1

NCI-H2126 = test system: NCI-H2126
Procedure, shortened: as §1

EMC-BAC-2 = test system: EMC-BAC-2
Procedure, shortened: as §1

LC-2-ad = test system: LC-2-ad
Procedure, shortened: as §1

ABC-1 = test system: ABC-1
Procedure, shortened: as §1

NCI-H23 = test system: NCI-H23
Procedure, shortened: as §1

NCI-H2023 = test system: NCI-H2023
Procedure, shortened: as §1

SK-LU-1 = test system: SK-LU-1
Procedure, shortened: as §1

NCI-H2228 = test system: NCI-H2228
Procedure, shortened: as §1

ChaGo-K-1 = test system: ChaGo-K-1
Procedure, shortened: as §1

HOP-62 = test system: HOP-62
Procedure, shortened: as §1

HARA = test system: HARA
Procedure, shortened: as §1

Cc1sc2c(c1C)C(c1ccc(Cl)cc1)=N[C@@H](CC(=O)OC(C)(C)C)c1nnc(C)n1-2 [JQ1] + CC(C)C[C@H](NC(=O)[C@H](Cc1ccccc1)NC(=O)c1cnccn1)B(O)O [Bortezomib] (partner 0.002 µM)
relative viability (NCI-H838; first compound 0.04 µM): 0.69 | relative viability (NCI-H838; first compound 0.1265 µM): 0.426 | relative viability (NCI-H838; first compound 0.4 µM): 0.31 | relative viability (NCI-H838; first compound 1.265 µM): 0.208 | relative viability (NCI-H838; first compound 4 µM): 0.154 | relative viability (COR-L23; first compound 0.04 µM): 0.981 | relative viability (COR-L23; first compound 0.1265 µM): 0.673 | relative viability (COR-L23; first compound 0.4 µM): 0.792 | relative viability (COR-L23; first compound 1.265 µM): 0.579 | relative viability (COR-L23; first compound 4 µM): 0.17 | relative viability (HCC-366; first compound 0.04 µM): 1.08 | relative viability (HCC-366; first compound 0.4 µM): 1.03 | relative viability (HCC-366; first compound 1.265 µM): 0.585 | relative viability (HCC-366; first compound 4 µM): 0.23 | relative viability (HCC-15; first compound 0.04 µM): 0.958 | relative viability (HCC-15; first compound 0.4 µM): 0.98 | relative viability (HCC-15; first compound 1.265 µM): 0.705 | relative viability (HCC-15; first compound 4 µM): 0.628 | relative viability (NCI-H1993; first compound 0.04 µM): 1.08 | relative viability (NCI-H1993; first compound 0.1265 µM): 1.13 | relative viability (NCI-H1993; first compound 0.4 µM): 1.04 | relative viability (NCI-H1993; first compound 1.265 µM): 0.738 | relative viability (NCI-H1993; first compound 4 µM): 0.458 | relative viability (NCI-H2405; first compound 0.04 µM): 1.07 | relative viability (NCI-H2405; first compound 0.1265 µM): 0.628 | relative viability (NCI-H2405; first compound 0.4 µM): 1.03 | relative viability (NCI-H2405; first compound 1.265 µM): 0.827 | relative viability (NCI-H2405; first compound 4 µM): 0.678 | relative viability (HCC-78; first compound 0.04 µM): 0.53 | relative viability (HCC-78; first compound 0.1265 µM): 0.453 | relative viability (HCC-78; first compound 0.4 µM): 0.231 | relative viability (HCC-78; first compound 1.265 µM): 0.19 | relative viability (HCC-78; first compound 4 µM): 0.172 | relative viability (NCI-H2126; first compound 0.04 µM): 1.08 | relative viability (NCI-H2126; first compound 0.1265 µM): 1.01 | relative viability (NCI-H2126; first compound 0.4 µM): 1.14 | relative viability (NCI-H2126; first compound 1.265 µM): 0.981 | relative viability (NCI-H2126; first compound 4 µM): 0.966 | relative viability (EMC-BAC-2; first compound 0.04 µM): 1.09 | relative viability (EMC-BAC-2; first compound 0.1265 µM): 0.961 | relative viability (EMC-BAC-2; first compound 0.4 µM): 0.91 | relative viability (EMC-BAC-2; first compound 1.265 µM): 0.621 | relative viability (EMC-BAC-2; first compound 4 µM): 0.544 | relative viability (LC-2-ad; first compound 0.04 µM): 0.853 | relative viability (LC-2-ad; first compound 0.1265 µM): 0.391 | relative viability (LC-2-ad; first compound 0.4 µM): 0.787 | relative viability (LC-2-ad; first compound 1.265 µM): 0.131 | relative viability (LC-2-ad; first compound 4 µM): 0.109 | relative viability (ABC-1; first compound 0.04 µM): 0.306 | relative viability (ABC-1; first compound 0.1265 µM): 0.233 | relative viability (ABC-1; first compound 0.4 µM): 0.329 | relative viability (ABC-1; first compound 1.265 µM): 0.332 | relative viability (ABC-1; first compound 4 µM): 0.272 | relative viability (NCI-H23; first compound 0.04 µM): 1.07 | relative viability (NCI-H23; first compound 0.1265 µM): 0.86 | relative viability (NCI-H23; first compound 0.4 µM): 0.666 | relative viability (NCI-H23; first compound 1.265 µM): 0.241 | relative viability (NCI-H23; first compound 4 µM): 0.332 | relative viability (NCI-H2023; first compound 0.04 µM): 0.966 | relative viability (NCI-H2023; first compound 0.1265 µM): 0.57 | relative viability (NCI-H2023; first compound 0.4 µM): 0.437 | relative viability (NCI-H2023; first compound 1.265 µM): 0.263 | relative viability (NCI-H2023; first compound 4 µM): 0.193 | relative viability (SK-LU-1; first compound 0.04 µM): 1.37 | relative viability (SK-LU-1; first compound 0.1265 µM): 0.693 | relative viability (SK-LU-1; first compound 0.4 µM): 0.941 | relative viability (SK-LU-1; first compound 1.265 µM): 0.28 | relative viability (SK-LU-1; first compound 4 µM): 0.205 | relative viability (NCI-H2228; first compound 0.04 µM): 0.764 | relative viability (NCI-H2228; first compound 0.1265 µM): 0.918 | relative viability (NCI-H2228; first compound 0.4 µM): 0.609 | relative viability (NCI-H2228; first compound 1.265 µM): 0.245 | relative viability (NCI-H2228; first compound 4 µM): 0.185 | relative viability (ChaGo-K-1; first compound 0.04 µM): 1.09 | relative viability (ChaGo-K-1; first compound 0.4 µM): 1.06 | relative viability (ChaGo-K-1; first compound 1.265 µM): 0.493 | relative viability (ChaGo-K-1; first compound 4 µM): 0.373 | relative viability (HOP-62; first compound 0.04 µM): 0.447 | relative viability (HOP-62; first compound 0.1265 µM): 0.641 | relative viability (HOP-62; first compound 0.4 µM): 0.515 | relative viability (HOP-62; first compound 1.265 µM): 0.11 | relative viability (HOP-62; first compound 4 µM): 0.111 | relative viability (HARA; first compound 0.04 µM): 1.08 | relative viability (HARA; first compound 0.1265 µM): 0.725 | relative viability (HARA; first compound 0.4 µM): 0.611 | relative viability (HARA; first compound 1.265 µM): 0.433 | relative viability (HARA; first compound 4 µM): 0.173
